Article PMC4795541, “A Rapid and Quantitative Flow Cytometry Method for the Analysis of Membrane Disruptive Antimicrobial Activity” (PLoS ONE, 2016)
Where a SMILES comes first, the peptide text is derived from it. [ ]: non-standard residue; d: D form. Phe(ol) = N[C@H](CO)Cc1ccccc1; Aib = CC(C)(N)C(=O)O

What was measured:
Test in all cases: MDC, flow cytometry Syto9/PI membrane disruption assay
Conditions in all cases: 90 min incubation, average of 3 assays ± SD
[1] = tested on: E. aerogenes ATCC 13048; assay type: cell-based, Enterobacter aerogenes
Source text: (§1) The bacterial strains; Fusobacterium nucleatum ATCC 25586, Streptococcus mutans Ingbritt, Staphylococcus aureus (MSSA) ATCC 29213; Staphylococcus aureus (MRSA) ATCC 43300; Enterococcus faecalis ATCC 29212; Enterobacter aerogenes ATCC 13048; Pseudomonas aeruginosa strain PAO1-LAC, ATCC 47085; Klebsiella pneumoniae ATCC 13883; Acinetobacter baumannii strain 2208, ATCC 19606; Escherichia coli ATCC 25922 lyophilised or glycerol stocks were obtained from the culture collection of the Oral Health Cooperative Research Centre, The Melbourne Dental School, University of Melbourne, Australia. These strains were selected for this study as they are widely used in antimicrobial studies and are considered to be important pathogens and major targets for antibiotic resistant studies. […] After overnight incubation, 0.5–2.0 mL of the starter culture was used to inoculate the appropriate fresh broth (200 mL) and growth monitored at 650 nm using a spectrophotometer (model 275E; Perkin-Elmer, Sydney, Australia) with culture purity checked by microscopic examination and culture. Bacteria were harvested during late exponential growth phase and viability and bacteria/mL determined using a BacLight viability kit (Invitrogen, Sydney, Australia) and a Quanta SC-MPL flow cytometer (Beckman coulter Pty, Ltd, Sydney, Australia). […]

[2] = tested on: E. faecalis ATCC 29212; assay type: cell-based, Enterococcus faecalis
Source text: as §1

[3] = tested on: K. pneumoniae ATCC 13883; assay type: cell-based, Klebsiella pneumoniae
Source text: as §1

[4] = tested on: E. coli ATCC 25922; assay type: cell-based, Escherichia coli
Source text: as §1

[5] = tested on: A. baumannii strain 2208, ATCC 19606; assay type: cell-based, Acinetobacter baumannii
Source text: as §1

[6] = tested on: P. aeruginosa strain PAO1-LAC, ATCC 47085; assay type: cell-based, Pseudomonas aeruginosa
Source text: as §1

[7] = tested on: S. aureus (MSSA) ATCC 29213; assay type: cell-based, Staphylococcus aureus
Source text: as §1

CC(=O)NC(C)(C)C(=O)N1CCC[C@H]1C(=O)NC(C)(C)C(=O)N[C@@H](C)C(=O)NC(C)(C)C(=O)N[C@@H](C)C(=O)N[C@@H](CCC(N)=O)C(=O)NC(C)(C)C(=O)N[C@H](C(=O)NC(C)(C)C(=O)NCC(=O)N[C@@H](CC(C)C)C(=O)NC(C)(C)C(=O)N1CCC[C@H]1C(=O)N[C@H](C(=O)NC(C)(C)C(=O)NC(C)(C)C(=O)N[C@@H](CCC(=O)O)C(=O)N[C@@H](CCC(N)=O)C(=O)N[C@H](CO)Cc1ccccc1)C(C)C)C(C)C [Alamethicin] (Ac-[Aib]P[Aib]A[Aib]AQ[Aib]V[Aib]GL[Aib]PV[Aib][Aib]EQ[Phe(ol)]; N-terminus assumed)
MDC [1]: >250 µM
MDC [2]: 48.4 ± 10.9 µM
MDC [3]: >250 µM
MDC [4]: >250 µM
MDC [5]: >250 µM
MDC [6]: >250 µM
MDC [7]: 30.3 ± 8.2 µM
